{"source": "patent US20180303793A1", "about": "“METHODS AND COMPOSITIONS FOR TREATING TRAUMATIC BRAIN INJURY” (SCYTHIAN BIOSCIENCES INC., priority 2015, published 2018)", "origin": "cited, not measured here", "conditions": "single agent"}
{"smiles": "CCCCCCC(C)(C)c1cc(O)c2c(c1)OC(C)(C)[C@H]1CC=C(CO)C[C@H]21", "note": "[dexanabinol, 7-hydroxy-delta6-tetrahydrocannabinol 1,1-dimethylheptyl]", "values": [{"measurement": "intracranial pressure", "setting": "one prior study", "value": "lowered intracranial pressure"}, {"measurement": "gliosis and the subsequent immune cascade", "setting": "other prior studies", "value": "did not inhibit gliosis"}]}
